Literature values in patent US10539496B2, “Instrument and method for optical particle sensing” (Invitrox, Inc., priority 2011, dated 2020).

System: platelets
Settings: platelet inhibition in arterial thrombophilic diseases; share of drug-treated patients

| SMILES | treated patients who do not respond to treatment |
| --- | --- |
| CC(=O)Oc1ccccc1C(=O)O [ASA, Aspirin] | Approximately 25% |
| COC(=O)[C@H](c1ccccc1Cl)N1CCc2sccc2C1 [Plavix, clopidogrel bisulfate] | ~29% |
